Data: patent US9315475B2 (MERCK SHARP & DOHME CORP., priority 2011, dated 2016)

Legend:
[1] = tested on: HIV-1 (H9IIIB strain); experiment: Antiviral acute infection assay in cell culture (Spread); type: cell-based; conditions: Human immunodeficiency virus 1, T-lymphoid, HIV-1 H9IIIB infection of MT-4 human T-lymphoid cells in 10% FBS; mean of at least two independent experiments
Source text: Antiviral Assays in Cell Culture (“Spread”)
Acute Infection Assay (“Spread”) data were generated using HIV-1 (H9IIIB strain) infection of MT-4 human T-lymphoid cells in 10% FBS, and according to the methods disclosed by J. P. Vacca et al, “L-735,524: An orally bioavailable human immunodeficiency virus type 1 protease inhibitor,” Proc. Natl. Acad. Sci. USA, Vol. 91, pp. 4096-4100 (April 1994).

[2] = target: T1, wildtype HIV-1 protease (Human immunodeficiency virus type 1 group M subtype B, UniProt P04585); experiment: Assay for inhibition of microbial expressed HIV protease (Pepcleav); type: biochemical; conditions: wild type HIV-1 protease expressed in E. coli, peptide substrate, pH 5.5; mean of at least two independent experiments; read-out: Pepcleav
T1 construct: the wildtype HIV-1 protease (which was expressed in Escherichia coli); made in house; host or cells: Escherichia coli
In short: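 Cleavage of 400 μM peptide substrate Val-Ser-Gln-Asn-(βnaphthyl)Ala-Pro-Ile-Val by 20 pM wild-type enzyme (E. coli-expressed) ran 1 h at 30 °C after 30 min inhibitor preincubation, pH 5.5 acetate buffer. Inhibition derived from product peak area by C18 LC with multiple-reaction-monitoring MS after formic acid quench.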

Structure (SMILES) | EC50 [1] | IC50 [2]
CC(C)OC(=O)N[C@H](C(=O)Nc1cncc(F)c1CC[C@@H]1CN[C@H](COC(=O)NCC(F)(F)F)CO1)C(c1ccc(F)cc1)c1ccc(F)cc1 [Example 277, 4-fluoro-β-(4-fluorophenyl)-N-(5-fluoro-4-{2-[(2R,5S)-5-({[(2,2,2-trifluoroethyl)carbamoyl]oxy}methyl)morpholin-2-yl]ethyl}pyridin-3-yl)-Nα-[(1-methylethoxy)carbonyl]-L-phenylalaninamide] | 23 nM | 3.2 nM
O=C(NCC(F)(F)F)OC[C@@H]1CO[C@H](CCc2c(F)cncc2NC(=O)[C@@H](NC(=O)OC2CCCC2)C(c2ccc(F)cc2)c2ccc(F)cc2)CN1 [Example 278, Nα-[(cyclopentyloxy)carbonyl]-4-fluoro-β-(4-fluorophenyl)-N-(5-fluoro-4-{2-[(2R,5S)-5-({[(2,2,2-trifluoroethyl)carbamoyl]oxy}methyl)morpholin-2-yl]ethyl}pyridin-3-yl)-L-phenylalaninamide] | 38 nM | 3.2 nM
O=C(NCC(F)(F)F)OC[C@@H]1CO[C@H](CCc2c(F)cncc2NC(=O)[C@@H](NC(=O)OCCF)C(c2ccc(F)cc2)c2ccc(F)cc2)CN1 [Example 279, 4-fluoro-Nα-[(2-fluoroethoxy)carbonyl]-β-(4-fluorophenyl)-N-(5-fluoro-4-{2-[(2R,5S)-5-({[(2,2,2-trifluoroethyl)carbamoyl]oxy}methyl)morpholin-2-yl]ethyl}pyridin-3-yl)-L-phenylalaninamide] | 57 nM | 1.9 nM
COC(=O)N[C@H](C(=O)Nc1cncc(F)c1CC[C@@H]1CN[C@H](COC(=O)NCC(F)(F)F)CO1)C(c1cccc(F)c1)c1cccc(F)c1 [Example 280, 3-fluoro-β-(3-fluorophenyl)-N-(5-fluoro-4-{2-[(2R,5S)-5-({[(2,2,2-trifluoroethyl)carbamoyl]oxy}methyl)morpholin-2-yl]ethyl}pyridin-3-yl)-Nα-(methoxycarbonyl)-L-phenylalaninamide] | 15 nM | 1 nM
COC(=O)N[C@H](C(=O)Nc1cncc(F)c1CC[C@@H]1CN[C@H](COC(=O)NCC(F)(F)F)CO1)[C@@H](c1ccc(F)cc1)c1cccc(F)c1 [Example 281, (βS)-3-fluoro-β-(4-fluorophenyl)-N-(5-fluoro-4-{2-[(2R, 5S)-5-({[(2,2,2-trifluoroethyl)carbamoyl]oxy}methyl)morpholin-2-yl]ethyl}pyridin-3-yl)-Nα-(methoxycarbonyl)-L-phenylalaninamide] | 14 nM | 0.9 nM
COC(=O)N[C@H](C(=O)Nc1cncc(F)c1CC[C@@H]1CN[C@H](COC(=O)NCC(F)(F)F)CO1)[C@H](c1ccc(F)cc1)c1cccc(F)c1 [Example 282, (βR)-4-fluoro-β-(3-fluorophenyl)-N-(5-fluoro-4-{2-[(2R,5S)-5-({[(2,2,2-trifluoroethyl)carbamoyl]oxy}methyl)morpholin-2-yl]ethyl}pyridin-3-yl)-Nα-(methoxycarbonyl)-L-phenylalaninamide] | 25 nM | 3.7 nM
COC(=O)N[C@H](C(=O)Nc1cncc(F)c1CC[C@@H]1CN[C@H](COC(=O)NCC(F)(F)F)CO1)[C@H](c1ccc(F)cc1)c1ccc(OC(F)(F)F)cc1 [Example 283] | 69 nM | 14 nM
COC(=O)N[C@H](C(=O)Nc1cccc(F)c1CC[C@@H]1CN[C@H](COC(N)=O)CO1)C(c1ccc(F)cc1)c1ccc(F)cc1 [Example 284, N-[2-(2-{(2R,5S)-5-[(carbamoyloxy)methyl]morpholin-2-yl}ethyl)-3-fluorophenyl]-4-fluoro-β-(4-fluorophenyl)-Nα-(methoxy-carbonyl)-L-phenylalaninamide] | 19 nM | 12 nM
COC(=O)N[C@H](C(=O)Nc1cccc(F)c1CC[C@@H]1CN[C@H](COC(=O)NCC(F)(F)F)CO1)C(c1ccc(F)cc1)c1ccc(F)cc1 [Example 285] | 21 nM | 13 nM
COC(=O)N[C@H](C(=O)Nc1cncc(F)c1CC[C@@H]1CN[C@H](COC(=O)NCC(F)(F)F)CO1)[C@H](c1ccc(F)cc1)c1ccc(C(F)(F)F)cc1 [Example 286] | 37 nM | 4.6 nM
COC(=O)N[C@H](C(=O)Nc1cccc(F)c1CC[C@@H]1CN[C@H](COC(=O)NCC(F)(F)F)CO1)[C@@H](c1ccc(F)cc1)c1cccc(F)c1 [Example 287] | 17 nM | 6 nM
COC(=O)N[C@H](C(=O)Nc1cncc(F)c1CC[C@@H]1CN[C@H](COC(=O)NCC(F)(F)F)CO1)[C@@H](c1ccc(F)cc1)c1ccc(F)c(F)c1 [Example 288] | 16 nM | 3.2 nM
COC(=O)N[C@H](C(=O)Nc1cccc(F)c1CC[C@@H]1CN[C@H](COC(=O)NCC(F)(F)F)CO1)[C@H](c1ccc(F)cc1)c1ccc2ccccc2c1 [Example 289] | 310 nM | 16 nM
COC(=O)N[C@H](C(=O)Nc1cccc(F)c1CC[C@@H]1CN[C@H](COC(=O)NCC(F)(F)F)CO1)[C@H](c1ccccc1)c1ccc2ccccc2c1 [Example 290, (βR)-N-(3-fluoro-2-{2-[(2R,5S)-5-({[(2,2,2-trifluoroethyl)carbamoyl]oxy}methyl)morpholin-2-yl]ethyl}phenyl)-Nα-(methoxycarbonyl)-β-naphthalen-2-yl-L-phenylalaninamide] | 600 nM | 30 nM
COC(=O)N[C@H](C(=O)Nc1cncc(F)c1CC[C@@H]1CN[C@H](COC(=O)NCC(F)(F)F)CO1)[C@H](c1ccccc1)c1ccc(OC(F)(F)F)cc1 [Example 291, (βR)-N-(5-fluoro-4-{2-[(2R,5S)-5-({[(2,2,2-trifluoroethyl)carbamoyl]oxy}methyl)morpholin-2-yl]ethyl}pyridin-3-yl)-Nα-(methoxycarbonyl)-β-phenyl-O-(trifluoromethyl)-L-tyrosinamide] | 110 nM | 28 nM
COC(=O)N[C@H](C(=O)Nc1cccc(F)c1CC[C@@H]1CN[C@H](COC(=O)NCC(F)(F)F)CO1)[C@@H](c1ccc(F)cc1)c1cc(F)cc(F)c1 [Example 292, (βS)-3,5-difluoro-β-(4-fluorophenyl)-N-(3-fluoro-2-{2-[(2R,5S)-5-({[(2,2,2-trifluoroethyl)carbamoyl]oxy}methyl)morpholin-2-yl]ethyl}phenyl)-Nα-(methoxy-carbonyl)-L-phenylalaninamide] | 16 nM | 3.6 nM
CCC[C@H](c1ccccc1)[C@H](NC(=O)OC)C(=O)Nc1cccc(F)c1CC[C@@H]1CN[C@H](COC(=O)NCC(F)(F)F)CO1 [Example 293, (βR)-N-(3-fluoro-2-{2-[(2R,5S)-5-({[(2,2,2-trifluoroethyl)carbamoyl]oxy}methyl)morpholin-2-yl]ethyl}phenyl)-Nα-(methoxycarbonyl)-β-propyl-L-phenylalaninamide] | 80 nM | 100 nM
COC(=O)N[C@H](C(=O)Nc1cccc(F)c1CC[C@@H]1CN[C@H](COC(=O)NCC(F)(F)F)CO1)[C@H](c1ccccc1)c1ccc(F)c(F)c1 [Example 294, (βR)-β-(3,4-difluorophenyl)-N-(3-fluoro-2-{2-[(2R,5S)-5-({[(2,2,2-trifluoroethyl)carbamoyl]oxy}methyl)morpholin-2-yl]ethyl}phenyl)-Nα-(methoxycarbonyl)-L-phenylalaninamide] | 14 nM | 3.8 nM
COC(=O)N[C@H](C(=O)Nc1cccc(F)c1CC[C@@H]1CN[C@H](COC(=O)NCC(F)(F)F)CO1)[C@H](c1ccc(F)cc1)c1ccc(F)c(F)c1 [Example 295, (βR)-β-(3,4-difluorophenyl)-4-fluoro-N-(3-fluoro-2-{2-[(2R,5S)-5-({[(2,2,2-trifluoroethyl)carbamoyl]oxy}methyl)morpholin-2-yl]ethyl}phenyl)-Nα-(methoxy-carbonyl)-L-phenylalaninamide] | 13 nM | 2.5 nM
COC(=O)N[C@H](C(=O)Nc1cccc(F)c1CC[C@@H]1CN[C@H](COC(=O)NCC(F)(F)F)CO1)[C@H](c1ccccc1)c1ccc(OC)cc1 [Example 296, (βR)-N-(3-fluoro-2-{2-[(2R,5S)-5-({[(2,2,2-trifluoroethyl)carbamoyl]oxy}methyl)morpholin-2-yl]ethyl}phenyl)-Nα-(methoxy-carbonyl)-O-methyl-β-phenyl-L-tyrosinamide] | 120 nM | 23 nM
COC(=O)N[C@H](C(=O)Nc1cncc(F)c1CC[C@@H]1CN[C@H](COC(=O)NCC(F)(F)F)CO1)[C@H](c1ccc(F)cc1)c1ccc(F)c(F)c1 [Example 297, (βR)-3,4-difluoro-β-(4-fluorophenyl)-N-(5-fluoro-4-{2-[(2R,5S)-5-({[(2,2,2-trifluoroethyl)carbamoyl]oxy}methyl)morpholin-2-yl]ethyl}pyridin-3-yl)-Nα-(methoxycarbonyl)-L-phenylalaninamide] | 15 nM | 1 nM
COC(=O)N[C@H](C(=O)Nc1cncc(F)c1CC[C@@H]1CN[C@H](COC(=O)NCC(F)(F)F)CO1)[C@H](c1ccc(F)cc1)c1ccc(Br)cc1 [Example 298, (βR)-β-(4-bromophenyl)-4-fluoro-N-(5-fluoro-4-{2-[(2R,5S)-5-({[(2,2,2-trifluoroethyl)carbamoyl]oxy}methyl)morpholin-2-yl]ethyl}pyridin-3-yl)-Nα-(methoxycarbonyl)-L-phenylalaninamide] | 14 nM | 0.3 nM
